Consider 37 molecules from patent US10183013B2, “Cyclic sulfonamide containing derivatives as inhibitors of hedgehog signaling pathway” (NantBioScience, Inc., priority 2012, dated 2019).

The structures appear in SMILES notation. Some results are limits rather than exact numbers.

The test system of this assay is Hedgehog signalling (Gli-bla NIH3T3 cells, mShh stimulated). Description: Hedgehog signalling inhibition assay (Gli-Bla reporter assay in NIH 3T3 cells). Further: mShh 400 ng/ml. Format: cell-based. The note with it: Mus musculus, NIH3T3, 24 h; read-out: EC50. On the procedure:
Hedgehog signalling inhibition assays. The following table 2 represents the average EC50 values for particular compounds of the inventions. Gli-bla NIH3T3 cells (7500 cells/well) were plated the day prior to the assay in a 384-well and 96-format in complete growth medium. […] Cells were stimulated with mShh for 24 hours and then loaded with LiveBLAzer™-FRET B/G Substrate for 3 hours. Emission values at 460 nm and 530 nm were obtained using a standard fluorescence plate reader and the 460/530 Ratios plotted for each treatment (n=4 for each data point).
J. Cancer, 2011, 30(7):472-81).
Turning to `O=C(Nc1ccc(Cl)c(Oc2cccc(Cl)c2)c1)c1ccc(N2CCCS2(=O)=O)c(F)c1` [Example 139], the concentration for a half-maximal effect (EC50) was below 10 nM.

For `O=C(Nc1ccc(Cl)c(-c2ccc3ccccc3n2)c1)c1ccc(N2CCCS2(=O)=O)cc1` [Example 87], the 50% effective concentration (EC50) was 3000 nM.

Regarding `O=C(Nc1ccc(Cl)c(-c2nccc3ccccc23)c1)c1ccc(N2CCOCS2(=O)=O)cc1F` [Example 117, N-(4-chloro-3-(isoquinolin-1-yl)phenyl)-4-(3,3-dioxido-1,3,4-oxathiazinan-4-yl)-2-fluorobenzamide], the EC50 was determined as 16000 nM.

Regarding `O=C(Nc1ccc(Cl)c(-c2nccc3ncccc23)c1)c1ccc(N2CCCCS2(=O)=O)cc1Cl` [Example 103], the EC50 is below 10 nM.

As to `O=C(Nc1ccc(Cl)c(Oc2cccc(Cl)c2)c1)c1ccc(N2CCCS2(=O)=O)cc1` [Example 138], the EC50 is below 10 nM.

Regarding `O=C(Nc1ccc(Cl)c(-c2ccc3ccccc3n2)c1)c1ccc(N2CCCCS2(=O)=O)cc1` [Example 93], the EC50 is below 10 nM.

`O=C(Nc1ccc(Cl)c(NC(=O)c2cccc(Cl)c2)c1)c1ccc(N2CCCCS2(=O)=O)cc1` [Example 128]: the half-maximal effective concentration (EC50) is below 10 nM.

Regarding `O=C(Nc1cc(NC(=O)c2ccc(N3CCOCS3(=O)=O)cc2Cl)ccc1Cl)c1ccccc1` [Example 122, N-(3-benzamido-4-chlorophenyl)-2-chloro-4-(3,3-dioxido-1,3,4-oxathiazinan-4-yl)benzamide], the EC50 is below 10 nM.

On to `O=C(Nc1ccc(Cl)c(-c2ccc3ncccc3n2)c1)c1ccc(N2CCOCS2(=O)=O)cc1Cl` [Example 106, 2-chloro-N-(4-chloro-3-(1,5-naphthyridin-2-yl)phenyl)-4-(3,3-dioxido-1,3,4-oxathiazinan-4-yl)benzamide], for which the EC50 is below 10 nM.

In the case of `O=C(Nc1cc(NC(=O)c2ccc(N3CCCS3(=O)=O)cc2Cl)ccc1Cl)c1ccccc1` [Example 134], the EC50 was below 10 nM.

Take `O=C(Nc1ccc(Oc2cccc(Cl)c2)cc1)c1ccc(N2CCCS2(=O)=O)cc1Cl` [Example 141]: the concentration giving a half-maximal response (EC50) was below 10 nM.

On to `O=C(Nc1cc(NC(=O)c2ccc(N3CCOCS3(=O)=O)cc2F)ccc1Cl)c1ccccc1` [Example 124, N-(3-benzamido-4-chlorophenyl)-4-(3,3-dioxido-1,3,4-oxathiazinan-4-yl)-2-fluorobenzamide], for which the EC50 was below 10 nM.

`O=C(Nc1ccc(Cl)c(-c2ccc3cnccc3n2)c1)c1ccc(N2CCOCS2(=O)=O)cc1Cl` [Example 107, 2-chloro-N-(4-chloro-3-(1,6-naphthyridin-2-yl)phenyl)-4-(3,3-dioxido-1,3,4-oxathiazinan-4-yl)benzamide]: the EC50 is below 10 nM.

Regarding `O=C(Nc1ccc(Cl)c(NC(=O)c2cccc(Cl)c2)c1)c1ccc(N2CCCS2(=O)=O)c(Cl)c1` [Example 132], the EC50 was below 10 nM.

Consider `O=C(Nc1ccc(Cl)c(-c2ccc3ccccc3n2)c1)c1ccc(N2CCCCS2(=O)=O)cc1Cl` [Example 99], for which the half-maximal effective concentration (EC50) is below 10 nM.

Take `O=C(Nc1ccc(Cl)c(-c2ccccn2)c1)c1ccc(N2CCOCS2(=O)=O)cc1Cl` [Example 85, 2-chloro-N-(4-chloro-3-(pyridin-2-yl)phenyl)-4-(3,3-dioxido-1,3,4-oxathiazinan-4-yl)benzamide]: the EC50 is below 10 nM.

For `O=C(Nc1ccc(Cl)c(-c2ccc3cnccc3n2)c1)c1ccc(N2CCCCS2(=O)=O)cc1Cl` [Example 101], the concentration for a half-maximal effect (EC50) is below 10 nM.

With `O=C(Nc1ccc(Cl)c(-c2nccc3ccccc23)c1)c1ccc(N2CCCS2(=O)=O)c(Cl)c1` [Example 114], the concentration for a half-maximal effect (EC50) was below 10 nM.

For `O=C(Nc1cc(NC(=O)c2ccc(N3CCOCS3(=O)=O)cc2Cl)ccc1Cl)c1cccnc1` [Example 136], the EC50 was below 10 nM.

`O=C(Nc1ccc(Cl)c(-c2ccc3ncccc3n2)c1)c1ccc(N2CCCCS2(=O)=O)cc1Cl` [Example 102]: the EC50 is below 10 nM.

In the case of `O=C(Nc1cc(NC(=O)c2ccc(N3CCOCS3(=O)=O)cc2Cl)ccc1Cl)c1cccc(F)c1` [Example 125, 2-chloro-N-(4-chloro-3-(3-fluorobenzamido)phenyl)-4-(3,3-dioxido-1,3,4-oxathiazinan-4-yl)benzamide], the EC50 is below 10 nM.

For the molecule `O=C(Nc1ccc(Cl)c(-c2nccc3ncccc23)c1)c1ccc(N2CCCS2(=O)=O)cc1Cl` [Example 112], the EC50 is below 10 nM.

Turning to `O=C(Nc1ccc(Cl)c(-c2ccc3cnccc3n2)c1)c1ccc(N2CCCS2(=O)=O)cc1` [Example 90], the 50% effective concentration (EC50) turned out to be 12000 nM.

For `Cc1ccc(NC(=O)c2ccc(N3CCCS3(=O)=O)cc2Cl)cc1-c1nccc2ccccc12` [Example 111], the EC50 was below 10 nM.

On to `O=C(Nc1ccc(Cl)c(NC(=O)c2cccc(Cl)c2)c1)c1ccc(N2CCCS2(=O)=O)c(F)c1` [Example 121], for which the EC50 is below 10 nM.

Regarding `O=C(Nc1ccc(Cl)c(-c2ccc3ncccc3n2)c1)c1ccc(N2CCCCS2(=O)=O)cc1` [Example 97], the EC50 is below 10 nM.

On to `O=C(Nc1ccc(Cl)c(-c2nccc3ccccc23)c1)c1ccc(N2CCOCS2(=O)=O)cc1Cl` [Example 104, 2-chloro-N-(4-chloro-3-(isoquinolin-1-yl)phenyl)-4-(3,3-dioxido-1,3,4-oxathiazinan-4-yl)benzamide], for which the EC50 was below 10 nM.

On to `O=C(Nc1ccc(Cl)c(-c2ccc3ncccc3n2)c1)c1ccc(N2CCCS2(=O)=O)cc1` [Example 88], for which the EC50 is 10000 nM.

Consider `CC(=O)Nc1cc(NC(=O)c2ccc(N3CCCS3(=O)=O)cc2Cl)ccc1Cl` [Example 140], for which the EC50 is 1000 nM.

On to `O=C(Nc1ccc(Cl)c(-c2ccc3cnccc3n2)c1)c1ccc(N2CCCCS2(=O)=O)cc1` [Example 96], for which the EC50 is below 10 nM.

As to `O=C(Nc1ccc(Oc2cccc(Cl)c2)cc1)c1ccc(N2CCOCS2(=O)=O)cc1Cl` [Example 142], the EC50 is below 10 nM.

Regarding `O=C(Nc1ccc(Cl)c(-c2nccc3ccccc23)c1)c1ccc(N2CCCS2(=O)=O)cc1` [Example 86], the half-maximal effective concentration (EC50) was 28000 nM.

For the molecule `O=C(Nc1ccc(Cl)c(-c2nccc3ccccc23)c1)c1ccc(N2CCOCS2(=O)=O)cc1` [Example 108, N-(4-chloro-3-(isoquinolin-1-yl)phenyl)-4-(3,3-dioxido-1,3,4-oxathiazinan-4-yl)benzamide], the concentration for a half-maximal effect (EC50) amounted to 11000 nM.

`O=C(Nc1ccc(Cl)c(-c2nccc3ncccc23)c1)c1ccc(N2CCOCS2(=O)=O)cc1` [Example 109, N-(4-chloro-3-(1,6-naphthyridin-5-yl)phenyl)-4-(3,3-dioxido-1,3,4-oxathiazinan-4-yl)benzamide]: the EC50 is below 10 nM.

Regarding `O=C(Nc1cc(NC(=O)c2ccc(N3CCOCS3(=O)=O)cc2Cl)ccc1Cl)c1nccs1` [Example 127, N-(2-chloro-5-(2-chloro-4-(3,3-dioxido-1,3,4-oxathiazinan-4-yl)benzamido)phenyl)thiazole-2-carboxamide], the half-maximal effective concentration (EC50) was below 10 nM.

In the case of `O=C(Nc1ccc(Cl)c(-c2nccc3ncccc23)c1)c1ccc(N2CCOCS2(=O)=O)cc1Cl` [Example 105, 2-chloro-N-(4-chloro-3-(1,6-naphthyridin-5-yl)phenyl)-4-(3,3-dioxido-1,3,4-oxathiazinan-4-yl)benzamide], the EC50 was below 10 nM.

With `O=C(Nc1ccc(Cl)c(NC(=O)c2ccccc2Cl)c1)c1ccc(N2CCOCS2(=O)=O)cc1Cl` [Example 133, 2-chloro-N-(4-chloro-3-(2-chlorobenzamido)phenyl)-4-(3,3-dioxido-1,3,4-oxathiazinan-4-yl)benzamide], the EC50 is below 10 nM.
